Test results taken from patent publication US11773086B2, “Fungal modulators” (TRUSTEES OF BOSTON UNIVERSITY, priority 2020, dated 2023).

What was measured:
[1] = Tolerability; assay type: in vivo; details: 10 mg/Kg BID for 4 days
[2] = tested on: C. auris; assay: Sterol composition by LC-MS; assay type: cell-based, Candida auris; details: 18 hours
Excerpt: FIGS. 3A-3B, and 4A-4B illustrate azoffluxin increases fluconazole (FLC) bioavailability by inhibiting Cdr1-mediated efflux in C. auris, as described above. FIG. 3A depicts the relative abundance of specific sterols determined in C. auris after an 18-hour treatment with the respective compounds (⋅ indicates combo treatment concentrations) using LC-MS. Values are plotted relative to the internal standard of cholesterol and error bars indicate standard deviation between technical triplicates. Significance was determined by an unpaired student t-test of each condition to untreated, (*) indicates a p-value<0.05 and (**) indicates a p-value<0.01. FIG. 3B depicts the intracellular concentrations of FLC and azoffluxin measured after treatment for 1 hour (conditions as in FIG. 3A) Error bars indicate standard deviation between technical triplicates. Significance was determined by an unpaired student t-test, (**) indicates a p-value<0.01. FIG. 4A depicts the quantified relative expression of a panel of putative efflux pumps in C. auris Ci6684. Expression of CDR1 (B9J08_000164), MDR1 (B9J08_003981), CDR4-1 (B9J08_000479), CDR4-2 (B9J08_002451), SNQ2-1 (B9J08_001125), and SNQ2-2 (B9J08_004452) was measured by RT-qPCR. […] FIG. 4B depicts expression of CDR1 (B9J08_000164) and CDR4-1 (B9J08_000479) measured by quantitative real-time PCR (RT-qPCR). […]

[3] = tested on: C. albicans; assay: Checkerboard with fluconazole, clinical isolates CaCi-2 and CaCi-17; assay type: cell-based, Candida albicans
Method: FIG. 9A depicts checkerboard assays as described in FIG. 2B and performed with isolates of C. albicans. CaCi-2 and CaCi-17 represent early and late clinical isolates in which FLC resistance evolved over time. Growth was measured at 24 hours using OD600 and normalized to a no drug control well (see color bar). FIG. 9B depicts dose response assays conducted in YPD medium with a C. albicans parental strain, and strains with gain of function mutations in TAC1 as indicated. FLC was tittered in a two-fold dilution on the x-axis in the absence and presence of 50 μM azoffluxin. Growth was measured at 24 hours using OD600 and normalized to a no drug control well (see color bar). […] FIGS. 9D and 9E depict the intracellular concentrations of FLC and azoffluxin measured after treatment (combo treatment at 6.25 μM azoffluxin and 8 μg/mL FLC) for 1 hour by LC-MS. […] Significance was determined by an unpaired student t-test of each combination to the respective compound alone treatment, (*) indicates a p-value<0.05 and (**) indicates a p-value<0.01.
Compound potency was assessed alone by dose response assays or in combination with another compound by dose-response matrixes in 96-well plates, or 384-well, flat-bottom, microtiter plates (Corning) as previously described. […] Growth was quantified by measuring OD600 and corrected for medium background. […]

C=C(C)C[C@@H](O)COc1cc2c(cc1C1(c3cc4c(cc3OC[C@H](O)CC(=C)C)OCO4)C(=O)Nc3cc(F)ccc31)OCO2 [CMLD012336]
tolerability [1]: well tolerated
increase in 14-α-methyl-3,6-diol ([2]; azoffluxin + low fluconazole vs low fluconazole alone): 4 fold
abundance of ergosterol, lanosterol, 14-α-methyl-3,6-diol ([2]; azoffluxin alone vs untreated): No significant increases
potentiation of fluconazole ([3]; early clinical isolate CaCi-2): No potentiation
potentiation of fluconazole ([3]; late clinical isolate CaCi-17): did potentiate fluconazole
